Reference: patent US20250195500A1, “INJECTABLE PREPARATION COMPRISING ISOXAZOLINE DERIVATIVE, AND PREPARATION METHOD THEREFOR” (LG CHEM, LTD., priority 2022, published 2025)
Entries after “also recorded” stand apart in the source; their conditions may differ.

Legend:
[1] = Solubility in solvents of various compositions; assay type: physicochemical
Text: Further, it was confirmed that the compound of Formula 1 has the property of reducing the pH of a solution while being dissolved in a solvent.

[2] = system: caspase; assay: Caspase inhibitory activity; assay type: biochemical; details: form present in aqueous solution
[3] = Conversion from compound of Formula 2 to compound of Formula 3 according to pH of solvent; assay type: physicochemical

Row | SMILES | solubility in solvent ([1]; basic solvent pH 9.0 or higher, strong acidic solvent pH 1 or lower or specific solvent that can be freeze-dried) | solubility in water ([1]; water) | caspase inhibitory activity [2] | production of compound of Formula 3 from compound of Formula 2 ([3]; acidic solvent) | production of compound of Formula 3 from compound of Formula 2 ([3]; neutral or more basic solvent)
1 | CC(C)[C@@]1(C(=O)NC2CC(=O)OC2(O)CF)CC(c2nccc3ccccc23)=NO1 (stereo in doubt) [compound of Formula 1, (R)—N-((2S,3S)-2-(fluoromethyl)-2-hydroxy-5-oxotetrahydrofuran-3-yl)-5-isopropyl-3-(isoquinolin-1-yl)-4,5-dihydroisoxazol-5-carboxamide] | dissolves well | poorly soluble in water; also recorded: hardly soluble in water | – | – | –
2 | CC(C)[C@@]1(C(=O)N[C@@H](CC(=O)O)C(=O)CF)CC(c2nccc3ccccc23)=NO1 [compound of Formula 2] | – | – | active form | – | –
3 | CC(C)[C@@]1(C(=O)N[C@H](CC(=O)O)C(=O)CF)CC(c2nccc3ccccc23)=NO1 [compound of Formula 3] | – | – | does not show the caspase inhibitory activity | hardly produced | rapidly produced
